row,Structure (SMILES),melting point
1,"O=C(O)c1ccc(OCCC(O)CO)cc1O (stereo not shown) [Compound 2-2, 4-(3,4-Dihydroxybutoxy)-2-hydroxy-benzoic acid]",140 to 148 °C
2,"O=C(O)c1ccc(OCc2ccc(-c3ccco3)cc2)cc1O [Compound 3-3, 4-(4-Furan-2-yl-benzyloxy)-2-hydroxy-benzoic acid]",201 to 205 °C (dec.)
3,COc1cc(NC(=O)c2ccc(-c3ccccc3)cc2)ccc1C(=O)O [Compound 7-1],179 to 181 °C
4,"O=C(Oc1ccc(C(=O)O)c(O)c1)c1ccc(-c2ccccc2)cc1 [Compound 5-1, 4-(4-Phenyl-benzoyloxy)-2-hydroxy benzoic acid]",> 275 °C
5,"O=C(O)c1ccc(OCc2ccc(F)cc2)cc1O [Compound 1-18, 4-(4-Fluoro-benzyloxy)-2-hydroxy-benzoic acid]",196 to 198 °C
6,"Nc1cccc(-c2cccc(COc3ccc(C(=O)O)c(O)c3)c2)c1 [Compound 3-24, 4-(3′-Amino-biphenyl-3-ylmethoxy)-2-hydroxy-benzoic acid]",205 to 208 °C (dec.)
7,"O=C(O)c1ccc(NCc2ccc(OC(F)F)cc2)cc1O [Compound 6-2, 4-(4-Difluoromethoxy-benzylamino)-2-hydroxy-benzoic acid]",161 to 162 °C
8,"O=C(O)c1ccc(OCc2ccc(-c3ccoc3)cc2)cc1O [Compound 3-4, 4-(4-Furan-3-yl-benzyloxy)-2-hydroxy-benzoic acid]",202 to 206 °C (dec.)
9,"O=C(O)c1ccc(Oc2ccc([N+](=O)[O-])cc2)cc1O [Compound 8-1, 2-Hydroxy-4-(4-nitro-phenoxy)-benzoic acid]",195 to 197 °C
10,"COc1ccc(-c2cccc(COc3ccc(C(=O)O)c(O)c3)c2)c(OC)c1 [Compound 3-42, 4-(2′,4′-Dimethoxy-biphenyl-3-ylmethoxy)-2-hydroxy-benzoic acid]",176 to 178 °C (dec.)
11,"CCCCCCCCOc1ccc(C(=O)O)c(O)c1 [Compound 1-3, 2-Hydroxy-4-octyloxy-benzoic acid]",100 to 102 °C
12,"O=C(O)c1ccc(NCc2ccc(F)cc2)cc1O [Compound 6-4, 4-(4-Fluoro-benzylamino)-2-hydroxy-benzoic acid]",175 °C (dec.)
13,"CC(C)=CCC/C(C)=C/COc1ccc(C(=O)O)c(O)c1 [Compound 1-13, 4-(3,7-Dimethyl-octa-2,6-dienyloxy)-2-hydroxybenzoic acid]",97 to 106 °C
14,"CCCCCCCCCc1ccc(C(=O)O)c(O)c1 [Compound 11-1, 4-Nonyl salicylic acid]",94 to 97 °C
15,"O=C(O)c1ccc(OCCCCCCC(O)CO)cc1O (stereo not shown) [Compound 2-6, 4-(7,8-Dihydroxyoctyloxy)-2-hydroxy-benzoic acid]",168 to 170 °C
16,"NNC(=O)c1ccc(OCc2cccc(Br)c2)cc1O [Compound 2-7, 4-(3-Bromo-benzyloxy)-2-hydroxy-benzoic acid hydrazide]",201 to 203 °C
17,"N#Cc1ccc(NCc2ccc(-c3ccccc3)cc2)cc1O [Compound 12-16, 4-[(Biphenyl-4-ylmethyl)-amino]-2-hydroxy-benzonitrile]",196 to 197 °C
18,"Cn1ccc2cc(-c3cccc(COc4ccc(C(=O)O)c(O)c4)c3)ccc21 [Compound 3-33, 2-Hydroxy-4-[3-(1-methyl-1H-indol-5-yl)-benzyloxy]-benzoic acid]",181 to 183 °C (dec.)
19,"C=CCCOc1ccc(C(=O)O)c(O)c1 [Compound 1-5, 4-But-3-enyloxy-2-hydroxy-benzoic acid]",143 to 144 °C

row,Structure (SMILES),melting point
1,"COc1cccc(-c2ccc(COc3ccc(C(=O)O)c(O)c3)cc2)c1 [Compound 3-9, 2-Hydroxy-4-(3′methoxy-biphenyl-4-ylmethoxy)-benzoic acid]",197 to 199 °C (dec.)
2,"Nc1ccc(Oc2ccc(C(=O)O)c(O)c2)cc1 [Compound 8-2, 4-(4-Amino-phenoxy)-2-hydroxy-benzoic acid]",187 to 188 °C
3,"Cc1noc(C)c1COc1ccc(C(=O)O)c(O)c1 [Compound 1-1, 2-Hydroxy-4-(3,5-dimethyl-isoxazol-4-yl-methyloxy)-benzoic acid]",201 to 203 °C
4,"COc1ccc(-c2ccc(COc3ccc(C(=O)O)c(O)c3)cc2)cc1OC [Compound 3-15, 2-Hydroxy-4-(3′,4′-dimethoxy-biphenyl-4-ylmethoxy)-benzoic acid]",200 to 204 °C (dec.)
5,"O=C(O)c1ccc(OCc2cccc(-c3ccccc3)c2)cc1O [Compound 3-18, 4-(Biphenyl-3-ylmethoxy)-2-hydroxy-benzoic acid]",184 °C (dec.)
6,"O=C(O)c1ccc(OCC(O)CO)cc1O (stereo not shown) [Compound 2-1, 4-(2,3-Dihydroxypropoxy)-2-hydroxy-benzoic acid]",151 to 153 °C
7,"CCCCCCCCOc1ccc(O)c(O)c1 [Compound 10-1, 4-Octyloxy-benzene-1,2-diol]",108 to 115 °C (dec.)
8,"O=C(O)c1ccc(OCCCCC(O)CO)cc1O (stereo not shown) [Compound 2-3, 4-(5,6-Dihydroxhexoxy)-2-hydroxy-benzoic acid]",152 °C
9,"CC(=O)c1ccc(-c2cccc(COc3ccc(C(=O)O)c(O)c3)c2)s1 [Compound 3-29, 4-[3-(5-Acetyl-thiophen-2-yl)-benzyloxy]-2-hydroxy-benzoic acid]",210 to 215 °C (dec.)
10,"CC(=O)Nc1cccc(-c2ccc(COc3ccc(C(=O)O)c(O)c3)cc2)c1 [Compound 3-12, 4-(3′-Acetylamino-biphenyl-4-ylmethoxy)-2-hydroxy-benzoic acid]",231 to 233 °C (dec.)
11,"O=C(O)c1ccc(OCc2ccc(-c3ccc(CO)cc3)cc2)cc1O [Compound 3-16, 2-Hydroxy-4-(4′-hydroxymethyl-biphenyl-4-ylmethoxy)-benzoic acid]",222 to 226 °C (dec.)
12,"O=C(O)c1ccc(OCc2cccc(-c3ccc(Cl)c(Cl)c3)c2)cc1O [Compound 3-30, 4-(3′,4′-Dichloro-biphenyl-3-ylmethoxy)-2-hydroxy-benzoic acid]",211 to 215 °C (dec.)
13,"O=C(O)c1ccc(OCc2ccc3ccccc3n2)cc1O [Compound 1-19, 2-Hydroxy-4-(quinolin-2-ylmethoxy)-benzoic acid]",197 °C (dec.)
14,"O=C(O)c1ccc(OCc2cccc(-c3cccc4ccccc34)c2)cc1O [Compound 3-37, 2-Hydroxy-4-(3-naphthalen-1-yl-benzyloxy)-benzoic acid]",156 to 164 °C (dec.)
15,"O=C(O)c1cccc(-c2ccc(COc3ccc(C(=O)O)c(O)c3)cc2)c1 [Compound 3-7, 4′-(4-Carboxy-3-hydroxy-phenoxymethyl)-biphenyl-3-carboxylic acid]",249 to 255 °C (dec.)
16,"O=C(O)c1ccc(OCc2ccc(-c3ccncc3)cc2)cc1O [Compound 3-2, 2-Hydroxy-4-(4-pyridin-4-yl-benzyloxy)-benzoic acid]",252 to 257 °C (dec.)
17,"C=CCCCCOc1ccc(C(=O)O)c(O)c1 [Compound 1-7, 4-Hex-5-enyloxy-2-hydroxy-benzoic acid]",105 °C
18,"CC(=O)c1cccc(-c2cccc(COc3ccc(C(=O)O)c(O)c3)c2)c1 [Compound 3-20, 4-(3′-Acetyl-biphenyl-3-ylmethoxy)-2-hydroxy-benzoic acid]",173 to 180 °C (dec.)

# — patent publication US7741352B2, “KCNQ channel modulating compounds and their pharmaceutical use” (Neurosearch A/S, priority 2003, dated 2010)
